Series [1] relates to miR-18a. The experiment in a line: Ribonuclease activity assay, cleavage of miR-18a. It counts as biochemical. The settings on record: miRNA 1 µM, DC 20 µM, 37 °C. How it is done: (§1) The ribonuclease activity of DCs was studied under two different buffer conditions: buffer (1) contained 50 mM Tris-HCl, pH 7.0, 200 mM KCl, 1 mM EDTA, which imitates intracellular conditions (e.g., pH and potassium ions concentration) and was used in a number of studies previously; and buffer (2) contained 20 mM Tris-HCl, pH 7.8, 40 mM KCl, 8 mM MgCl2, 1 mM DTT, 0.02 mg/mL BSA, which is recommended for in vitro reactions with RNase H (Figure 3 and Figure 4).
Figure 3 Kinetics of cleavage of 5′-[^32P]-labeled miR-17, miR-18a, miR-155, miR-21 and miR-21_1 by corresponding DCs in the buffer (1), containing 50 mM Tris-HCl, pH 7.0, 200 mM KCl and 1 mM EDTA. (a–e) Radioautographs of 18% denaturing PAAG showing the cleavage products of miR-17, miR-18a, miR-155, miR-21 and miR-21_1, respectively. miRNA (1 µM) and corresponding DC (20 µM) were incubated at 37 °C for 72 h. Lanes Im and T1—imidazole ladder and partial RNA digestion with RNase T1, respectively; control–miRNA was incubated in the absence of the conjugate. The incubation time (in hours) is show at the top. SS gap–single-stranded region of miRNA formed upon hybridization with DC; (f) Kinetics of miRNAs cleavage by DCs depending on the incubation time. Data are presented as mean ± s.e.
Figure 4 Kinetics of cleavage of 5′-[^32P]-labeled miR-17, miR-18a, miR-155, miR-21, and miR-21_1 by corresponding DCs in the buffer (2), containing 20 mM Tris-HCl, pH 7.8, 40 mM KCl, 8 mM MgCl2, 1 mM DTT, 0.02 mg/mL BSA. (a–e) Radioautographs of 18% denaturing PAAG showing the cleavage products of miR-17, miR-18a, miR-155, miR-21 and miR-21_1, respectively. miRNA (1 µM) and corresponding DC (20 µM) were incubated at 37 °C for 72 h. Lanes Im and T1–imidazole ladder and partial RNA digestion with RNase T1, respectively; control–miRNA was incubated in the absence of the conjugate. The incubation time (in hours) is shown at the top. SS gap–single-stranded region of miRNA formed upon hybridization with DC; (f) Kinetics of miRNAs cleavage by DCs. Data are presented as mean ± s.e.
(§2) The reaction mixture (10 µL) contained 800 cpm (Cherenkov’s counting) of [^32P]-miRNA, 1 μM unlabeled miRNA, one of the conjugates at a concentration 10 or 20 μM and one of the buffers: 50 mM Tris-HCl, pH 7.0, 200 mM KCl, 1 mM EDTA–buffer (1) or 20 mM Tris-HCl, pH 7.8, 40 mM KCl, 8 mM MgCl2, 1 mM DTT, 0.02 mg/mL BSA–buffer (2). The mixture was incubated at 37 °C for 0–72 h and quenched by precipitation of RNA with 2% LiClO4 in acetone (90 µL). RNA was collected by centrifugation and dissolved in loading buffer (8 M urea, 0.025% bromophenol blue, 0.025% xylene cyanol). RNA cleavage products were analyzed in 18% PAAG/8M urea using TBE (100 mM Tris-borate, pH 8.3, 2 mM EDTA) as running buffer. To identify cleavage sites, an imidazole and T1-ladders produced by partial RNA cleavage with 2 M imidazole buffer (pH 7.0) and with RNase T1 [68], respectively, were run in parallel. To obtain quantitative data, gels were dried and analyzed using Molecular Imager FX. The total extent of RNA cleavage and the extent of RNA cleavage at each individual site were determined by using Quantity One software v.4.1 (Bio-Rad, Hercules, CA, USA).

Series [2] concerns miR-21_1. The series is described as follows: Ribonuclease activity assay, cleavage of modified miR-21_1. It counts as biochemical. The settings on record: miRNA 1 µM, DC 20 µM, 37 °C. How it is done:
as §1
Despite the high binding affinity of all DCs to their matching miRNA targets, miR-21 was not cleaved by the corresponding Dual conjugate (Figure 3d). The most probable reason for this was the absence of the pyrimidine-A sites sensitive towards cleavage by this type of conjugates within the single-stranded “gap” formed upon binding to conjugate. In order to verify this hypothesis, we tested the cleavage of the modified miR-21 sequence (miRNA-21_1) containing 2 substitutions in the gap region (AGACU → AUACA) to generate C-A and U-A bonds. Such replacement, indeed, led to a noticeable cleavage of the miR-21_1 target with miR-21-targeting DC at the introduced U11-A12 and C13-A14 sites (Figure 3e) with the cleavage efficiency reaching 18% (Figure 3f, Table S2).
as §2

[3] abbreviates: buffer (1) 50 mM Tris-HCl pH 7.0, 200 mM KCl, 1 mM EDTA, 2 h.
The mark [4] stands for this setting: buffer (1) 50 mM Tris-HCl pH 7.0, 200 mM KCl, 1 mM EDTA, 24 h.
Where [5] appears, read: buffer (1) 50 mM Tris-HCl pH 7.0, 200 mM KCl, 1 mM EDTA, 48 h.
The mark [6] stands for this setting: buffer (2) 20 mM Tris-HCl pH 7.8, 40 mM KCl, 8 mM MgCl2, 1 mM DTT, 0.02 mg/mL BSA, 6 h.
Setting [7] is: buffer (2) 20 mM Tris-HCl pH 7.8, 40 mM KCl, 8 mM MgCl2, 1 mM DTT, 0.02 mg/mL BSA, 24 h.
The mark [8] stands for this setting: buffer (2) 20 mM Tris-HCl pH 7.8, 40 mM KCl, 8 mM MgCl2, 1 mM DTT, 0.02 mg/mL BSA, 48 h.

With “TATCTGC–linker 1–[GRLRL]2–linker 2–ATGCACCTTA [miRNA-18a-DC, Dual oligonucleotide-peptide conjugate targeted to miR-18a: catalytic peptide [LRLRG]2 between two 2-aminoadenine-containing oligodeoxyribonucleotides]”, the “Total Cleavage” value is on record as 0% in series [1] (setting [3]); 1% in series [1] (buffer (1) 50 mM Tris-HCl pH 7.0, 200 mM KCl, 1 mM EDTA, 6 h); 3% in series [1] (setting [4]); 7% in series [1] (setting [5]); 8% in series [1] (buffer (1) 50 mM Tris-HCl pH 7.0, 200 mM KCl, 1 mM EDTA, 72 h); 1,4% in series [1] (buffer (2) 20 mM Tris-HCl pH 7.8, 40 mM KCl, 8 mM MgCl2, 1 mM DTT, 0.02 mg/mL BSA, 2 h). The “Total Cleavage” value came out at 5% in series [1] (setting [6]); 19% in series [1] (setting [7]); 23% in series [1] (setting [8]); 37% in series [1] (buffer (2) 20 mM Tris-HCl pH 7.8, 40 mM KCl, 8 mM MgCl2, 1 mM DTT, 0.02 mg/mL BSA, 72 h). Besides, the “rise of Kobs in buffer (2) compared to Kobs in buffer (1)” value in series [1] was 7 fold.

As for “TCAACATC–linker 1–[GRLRL]2–linker 2–GATAAGCTA [miRNA-21-DC, Dual oligonucleotide-peptide conjugate targeted to miR-21: catalytic peptide [LRLRG]2 between two 2-aminoadenine-containing oligodeoxyribonucleotides]”, the “Total Cleavage” value in series [2] (setting [3]) is on record as 0,7%; in series [2] (setting [4]), 10%; in series [2] (setting [5]), 18%; in series [2] (setting [6]), 14%; in series [2] (setting [7]) it was 48%; in series [2] (setting [8]), 63%. Also, the “rise of Kobs in buffer (2) compared to Kobs in buffer (1)” value in series [2] is 3 fold.

The values are drawn from article PMC7287882, “Dual miRNases for Triple Incision of miRNA Target: Design Concept and Catalytic Performance” (Molecules, 2020).
